We go through one molecule from patent publication US12714698B2, “Compositions and methods for treating or preventing dermal disorders” (Drexel University, priority 2015, dated 2026).

Test [1] concerns ribosomal S6 protein and MDM2. In words: Immunoblot of ribosomal S6 protein and MDM2 phosphorylation (mTORC1/p70S6K signaling). The note with it: agent added to NRTI-exposed cardiac fibroblasts. In kind it is cell-based, human. On the procedure: (§1) Cell culture experiments utilizing NRTIs were of the following design. Cultures of either human lung or cardiac fibroblasts were cultivated according to standard culture protocols for these cells (Cristofalo, et al., Journal of Tissue Culture Methods 1980, 6:117-121). Parallel sets of cultures were maintained in normal growth media or in normal growth media with the addition of 1 nM rapamycin. Cultures were maintained with 1 nM rapamycin (Enzo Biologicals) for two weeks before exposure to NRTIs. Cell cultures were exposed to NRTIs at indicated concentrations in individual experiments (generally 10-20 μg/ml) for 7 days, with a change of media and fresh NRTIs at day 4. Mitochondrial measurements, bioanalyzer measurements, immunoblotting for protein expression and phosphorylation status, and assays for senescence were performed at the end of this 7-day period.
(§2) Cell culture reagents were from Cellgro, unless indicated. WI-38 fetal-lung primary human fibroblasts or human cardiac fibroblasts were grown in MEM supplemented with 10% fetal bovine serum, 1% L-glutamine, MEM vitamins, and MEM non-essential amino acids. Cells were maintained in a 37° C. in 5% CO2 incubator. For treatment studies, cells were treated with 1 nM rapamycin (Enzo Biologicals) for two weeks before treatment with NRTIs. Cells were maintained by trypsinization and reseeding at a cell density of 1×10^4/cm^2 every 7 to 10 days. Emtricitabine (FTC) and tenofovir disoproxil fumarate (TDF) were kindly provided by the NIH AIDS Research & Reference Reagent program. During the 7-day exposure to the NRTIs, the pharmacologic inhibitors PD98059 (10 μM, Santa Cruz Biotechnologies), BI-D1870, GW5074, and SB203580 (10 μM, Enzo Biologicals) were added to the culture medium either during the final 48 hours or for the final 2 hours depending upon the experiment. During the 7-day exposure to NRTIs, Trolox (500 μM) and N-acetylcysteine (100 μM, Acros Organics) were added every other day. Mito-Q (20 nM) and TPP (20 nM) were kindly provided by Dr. Brett Kaufmann at the University of Pennsylvania School of Veterinary Medicine. Vector and mt-catalase adenoviruses (MOI's 25, 50, and 75) were purchased from Gene Transfer Vector Core from the University of Iowa.
Cell protein extracts were prepared by extracting with radioimmunoprecipitation assay (RIPA) buffer containing a protease inhibitor cocktail (Sigma-Aldrich) and phosphatase inhibitors, NaF and sodium orthovanadate. Protein concentration was quantified using a bicinchoninic acid (BCA) assay (Pierce Biotechnology). Western blot analysis was performed using 15 to 30 μg of protein extracts that were run on SDS-PAGE and transferred onto nitrocellulose (Biorad) membranes. Blots were incubated with antibodies specific for: beta-actin (Sigma-Aldrich), TFAm, parkin, p16, phospho(S82)HSP27, HSP27 (Santa Cruz Biotechnologies), p53, 21, catalase, MDM2 (EMD Millipore), VDAC, phospho(S235/236)-ribosomal protein S6, ribosomal protein S6, phospho(S166)-MDM2, phospho(5473)-AKT, AKT, beta-tubulin (Cell Signaling), p62 (Enzo Biologicals), IL-6 (NeoBiolab), lamin B1, PINK1, and Mitoprofile Total OXPHOS Cocktail (complex I-NDUFB8 subunit, CII-SDHB subunit, […]2 subunit, and CIV-mitochondrial COX1 subunit) (Abcam) according to manufacturers' instructions. Western blots were visualized using IRDye 680 and 800 LI-COR secondary antibodies on a LI-COR Odyssey using LI-COR Odyssey software version 3.0 (LI-COR Biosciences). For co-immunoprecipitation, cell protein extracts were prepared in HNTG buffer containing a protease inhibitor cocktail and quantified using BCA assay. Protein extracts at the concentration of 0.5 mg were pre-cleared with protein A/G beads (Santa Cruz Biologicals) for 30 minutes. After centrifugation at 2,000 rpm for 5 minutes at 4° C., the supernatant was incubated with the primary antibody at manufacturer's recommended concentration overnight at 4° C. An IgG antibody (Cell Signaling) was used as a non-specific control.
For orientation: In western blotting, separated proteins are transferred to a membrane and probed.

Test [2] has as its system human cardiac fibroblasts. In words: Immunoblot of senescence markers (p53, p21, p16, lamin B1, IL-6). It counts as cell-based. As to the method: as §1, §2
Cell protein extracts were prepared by extracting with radioimmunoprecipitation assay (RIPA) buffer containing a protease inhibitor cocktail (Sigma-Aldrich) and phosphatase inhibitors, NaF and sodium orthovanadate. Protein concentration was quantified using a bicinchoninic acid (BCA) assay (Pierce Biotechnology). […] For co-immunoprecipitation, cell protein extracts were prepared in HNTG buffer containing a protease inhibitor cocktail and quantified using BCA assay. […]

For test [3], the system named is dermal atrophy and actinic keratosis. Kind of test: Single site open label study, topical application in a patient. To be noted: 14 days of rapamycin treatment in an emulsified gel preparation, digital caliper. In kind it is in vivo, human. As to the method:
In certain embodiments, dermal atrophy is evaluated by measurement of the dermal layer utilizing a calibrated digital caliper measurement of the dermal layer. In other embodiments, improvement in seborrheic keratosis, lentigines, pseudoscars, coarse wrinkles, and epidermal thickening is evaluated through an investigator evaluation rating scale of 1-4, in which 1 is normal with no sign of lesion; 2 represents minor lesions; 3 represents lesions that are distinct features relative to normal skin; and 4 represents lesions that are of high severity. […] In yet other embodiments, lesions are evaluated by area measurement using manual measurement of the lesion or through analysis of images taken by investigators or research study staff.
Patients presenting to a physician with a diagnosis of dermal atrophy, seborrheic keratosis, actinic keratosis, lentigines, senile pseudoscars, or coarse wrinkles were selected for administration of a composition of the invention. Dermal thickness was quantified using a Mitoutoyo digital caliper with certified accuracy to 0.001 mm. […]
A single site open label study was performed. A patient presenting with an area of dermal atrophy and actinic keratosis on the hand was evaluated for application of Formulation R. the contralateral hand with similar dermal thickness but no actinic keratosis was used as a control. […]

The test system of test [4] is human cardiac fibroblasts. Kind of test: Senescence-associated beta-galactosidase detection. It counts as cell-based. The note with it: rapamycin treated cultures (1 nM). On the procedure:
as §1
Assessment of SA-β-gal activity was performed by plating cells following respective treatments at low density (0.5×10^4/cm^2) to prevent false positive staining known to occur in high density cultures. […] Following incubation, cells were washed three times with PBS and at least 500 cells were counted for each sample in triplicates. Positive cells (blue cells) were expressed as a percentage of total cells.

Test [5] relates to seborrheic keratosis lesion. In words: Topical treatment of a seborrheic keratosis lesion. In kind it is in vivo, human. The note with it: 21 days, 10 μM rapamycin in an emulsified gel preparation. As to the method: FIG. 20 is a photograph of a seborrheic keratosis lesion before and after 21 days of treatment with 10 μM rapamycin in an emulsified gel preparation as in FIG. 19.

Structures are written as SMILES.

For `CO[C@H]1C[C@@H]2CC[C@@H](C)[C@@](O)(O2)C(=O)C(=O)N2CCCC[C@H]2C(=O)O[C@H]([C@H](C)C[C@@H]2CC[C@@H](O)[C@H](OC)C2)CC(=O)[C@H](C)/C=C(\C)[C@@H](O)[C@@H](OC)C(=O)[C@H](C)C[C@H](C)/C=C/C=C/C=C/1C` [rapamycin], in test [1], the “MDM2 phosphorylation in cells exposed to NRTIs” value is recorded as “no increase” and the “ribosomal S6 phosphorylation in cells exposed to NRTIs” value is “complete lack”. Also, the “NRTI-induced decrease of lamin B1” value in test [2] (rapamycin (1 nM)) is given as “prevented this decrease”. Further, in test [2] (rapamycin treated cells (1 nM)), the “levels of IL-6 following exposure to NRTIs” value is recorded as “no increase”; the “levels of p53, p21 and p16 on NRTI exposure” value was “did not increase”. The “dermal thickness in atrophic skin” value in test [3] is recorded as “increases dermal thickness”. Besides, the “SA-β-gal following exposure to NRTIs” value in test [4] is “no increase”. The “severity of seborrheic keratosis lesion, visual inspection” value in test [5] is on record as “significant reduction in severity”.
